Experimental data as given in patent US12522595B2, “Bicyclic ether O-glycoprotein-2-acetamido-2-deoxy-3-D-glucopyranosidase inhibitors” (BIOGEN MA INC., priority 2019, dated 2026).

Each compound was assayed against T1, Recombinant full length human OGA enzyme (Homo sapiens, UniProt O60502) (assay: OGA enzyme inhibition biochemical assay). Settings: 1 nM OGA, 100 μM 4-MUGlcNAc (Km), pH 6.4, 90 minutes at room temperature, 10-point dose-response from 20 μM.
T1 construct: Recombinant full length human OGA enzyme was purchased from Origene; purchased Origene
T1 sequence (O60502 1-916): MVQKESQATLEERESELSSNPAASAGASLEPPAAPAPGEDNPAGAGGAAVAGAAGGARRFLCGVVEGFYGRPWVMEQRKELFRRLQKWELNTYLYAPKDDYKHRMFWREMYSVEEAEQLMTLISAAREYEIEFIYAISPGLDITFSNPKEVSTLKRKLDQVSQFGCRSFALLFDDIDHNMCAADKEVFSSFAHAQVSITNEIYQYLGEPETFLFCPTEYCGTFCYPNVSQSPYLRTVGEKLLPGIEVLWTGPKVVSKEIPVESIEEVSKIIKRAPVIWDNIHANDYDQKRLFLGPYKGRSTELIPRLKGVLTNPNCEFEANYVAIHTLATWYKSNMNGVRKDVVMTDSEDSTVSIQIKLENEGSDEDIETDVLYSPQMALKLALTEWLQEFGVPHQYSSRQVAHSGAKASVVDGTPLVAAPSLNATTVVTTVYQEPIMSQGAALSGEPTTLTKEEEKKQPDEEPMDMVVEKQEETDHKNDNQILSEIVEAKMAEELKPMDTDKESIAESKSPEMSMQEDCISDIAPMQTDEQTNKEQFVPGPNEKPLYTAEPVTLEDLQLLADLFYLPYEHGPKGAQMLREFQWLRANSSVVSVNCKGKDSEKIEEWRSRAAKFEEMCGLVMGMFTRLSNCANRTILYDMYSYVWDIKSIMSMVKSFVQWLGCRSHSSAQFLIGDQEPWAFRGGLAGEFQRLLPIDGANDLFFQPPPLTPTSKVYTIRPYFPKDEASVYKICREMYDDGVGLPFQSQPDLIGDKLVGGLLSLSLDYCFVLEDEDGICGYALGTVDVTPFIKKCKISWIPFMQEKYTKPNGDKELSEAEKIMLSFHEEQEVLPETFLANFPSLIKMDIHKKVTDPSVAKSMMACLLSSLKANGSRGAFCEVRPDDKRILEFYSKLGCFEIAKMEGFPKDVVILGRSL
Summary of the method: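 1 nM OGA with 100 μM 4-MUGlcNAc (Km) in McIlvaine buffer pH 6.4, 0.01% BSA, 90 min at room temperature; quenched with 3M glycine pH 10, fluorescence Ex 355/Em 460 nm. 10-point, 4-fold dilutions from 20 μM; 4-parameter variable-slope fit.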

Structure (SMILES) | IC50 [nM]
CC(=O)Nc1ncc(CN2C[C@H](Oc3ccc4nnc(C(F)(F)F)n4n3)C[C@@H]2C)s1 [Example 18, N-(5-(((2S,4R)-2-methyl-4-((3-(trifluoromethyl)-[1,2,4]triazolo[4,3-b]pyridazin-6-yl)oxy)pyrrolidin-1-yl)methyl)thiazol-2-yl)acetamide] | < 1
CC(=O)Nc1ncc(CN2C[C@H](Oc3cccc4nn(C)cc34)C[C@@H]2C)s1 [Example 83, N-(5-(((2S,4R)-2-methyl-4-((2-methyl-2H-indazol-4-yl)oxy)pyrrolidin-1-yl)methyl)thiazol-2-yl)acetamide] | 1.1
CC(=O)Nc1nc(F)c(CN2C[C@H](Oc3ncnc4c3cnn4C)C[C@@H]2C)s1 [Example 143, N-(4-fluoro-5-(((2S,4R)-2-methyl-4-((1-methyl-1H-pyrazolo[3,4-d]pyrimidin-4-yl)oxy)pyrrolidin-1-yl)methyl)thiazol-2-yl)acetamide] | < 1
CC(=O)Nc1ncc(CN2C[C@H](Oc3cccc4cnn(C)c34)C[C@@H]2C)s1 [Example 160, N-(5-(((2S,4R)-2-methyl-4-((1-methyl-1H-indazol-7-yl)oxy)pyrrolidin-1-yl)methyl)thiazol-2-yl)acetamide] | 2.4
CC(=O)Nc1ncc(CN2C[C@H](Oc3cncc4nccn34)C[C@@H]2C)s1 [Example 99, N-(5-(((2S,4R)-4-(imidazo[1,2-a]pyrazin-5-yloxy)-2-methylpyrrolidin-1-yl)methyl)thiazol-2-yl)acetamide] | < 1
CC(=O)Nc1ncc(CN2C[C@H](Oc3nc4c(cc3C#N)CCCC4)C[C@@H]2C)s1 [Example 32, N-(5-(((2S,4R)-4-((3-cyano-5,6,7,8-tetrahydroquinolin-2-yl)oxy)-2-methylpyrrolidin-1-yl)methyl)thiazol-2-yl)acetamide] | 11
CC(=O)Nc1nc(F)c(CN2C[C@H](Oc3ccn4nncc4c3)C[C@@H]2C)s1 [Example 149, N-(5-(((2S,4R)-4-([1,2,3]triazolo[1,5-a]pyridin-5-yloxy)-2-methylpyrrolidin-1-yl)methyl)-4-fluorothiazol-2-yl)acetamide] | < 1
CC(=O)Nc1ncc(CN2C[C@H](Oc3nc4cccnc4n3C)C[C@@H]2C)s1 [Example 91, N-(5-(((2S,4R)-2-methyl-4-((3-methyl-3H-imidazo[4,5-b]pyridin-2-yl)oxy)pyrrolidin-1-yl)methyl)thiazol-2-yl)acetamide] | 5

Now from value to compound:

IC50 [nM] | Structure (SMILES)
< 1 | CC(=O)Nc1nc(F)c(CN2C[C@H](Oc3ccc4ncoc4c3)C[C@@H]2C)s1 [Example 76, N-(5-(((2S,4R)-4-(benzo[d]oxazol-6-yloxy)-2-methylpyrrolidin-1-yl)methyl)-4-fluorothiazol-2-yl)acetamide]
< 1 | CC(=O)Nc1nc(F)c(CN2C[C@H](Oc3cccc4cn(C)nc34)C[C@@H]2C)s1 [Example 161, N-(4-fluoro-5-(((2S,4R)-2-methyl-4-((2-methyl-2H-indazol-7-yl)oxy)pyrrolidin-1-yl)methyl)thiazol-2-yl)acetamide]
< 1 | CC(=O)Nc1nc(F)c(CN2C[C@H](Oc3ccc4ccnn4c3)C[C@@H]2C)s1 [Example 54, N-(4-fluoro-5-(((2S,4R)-2-methyl-4-(pyrazolo[1,5-a]pyridin-6-yloxy)pyrrolidin-1-yl)methyl)thiazol-2-yl)acetamide]
< 1 | CC(=O)Nc1nc(F)c(CN2C[C@H](Oc3nn4ccnc4s3)C[C@@H]2C)s1 [Example 111, N-(4-fluoro-5-(((2S,4R)-4-(imidazo[2,1-b][1,3,4]thiadiazol-2-yloxy)-2-methylpyrrolidin-1-yl)methyl)thiazol-2-yl)acetamide]
< 1 | CC(=O)Nc1nc(F)c(CN2C[C@H](Oc3ccnc4ccoc34)C[C@@H]2C)s1 [Example 47, N-(4-fluoro-5-(((2S,4R)-4-(furo[3,2-b]pyridin-7-yloxy)-2-methylpyrrolidin-1-yl)methyl)thiazol-2-yl)acetamide]
